Key:
[1] = test system: naïve human CD4+ T cells; assay: FOXP3 induction in naïve CD4+ T cells, flow cytometry; format: cell-based
Method: Freshly isolated naïve (CD4+ CD25− CD127hi CD45RO−) T cells are cultured and treated with PDE3b and PDE4 inhibitors (middle panel) or rapamycin (positive control) (right panel), or are left untreated (left panel). CD25 and FOXP3 expression is measured by flow cytometry after 14 days of expansion.
Treatment of Tregs with small molecules that maintain high cAMP levels in T cells can be used to induce a regulatory phenotype. Small molecules that maintain high cAMP levels in T cells include agents that inhibit PDEs and agents that activate AC.

[2] = test system: NOD mice; assay: Onset of diabetes in NOD mice, blood glucose monitoring; format: in vivo; conditions: 8-week old NOD mice, 65 mg/kg i.p., three times a week for five weeks, monotherapy
Method: Briefly, 8-week old NOD mice are injected (i.p.) with various doses of cilostamide (low: 0.65 mg/kg, medium: 6.5 mg/kg, high: 65 mg/kg), or vehicle only. Cilostamide is administered three times a week for five weeks. The onset of diabetes in treated mice is monitored by blood glucose measurements. Diabetes is diagnosed if the blood glucose readings are greater than 240 mg/dl for two days.
The increase in level of FoxP3+ cells at an early stage of the autoimmune attack can be used to prevent or delay the onset of autoimmune disease. Briefly, 8-week old NOD mice are treated with various doses (low: 0.65 mg/kg; medium: 6.5 mg/kg; high: 65 mg/kg) of cilostamide via intraperitoneal (i.p.) injection. Cilostamide is administered to the mice three times a week for five weeks.

SMILES: CN(C(=O)CCCOc1ccc2[nH]c(=O)ccc2c1)C1CCCCC1 [cilostamide]
- FOXP3 induction ([1]; naïve CD4+ CD25− CD45RO− T cells, 14 days of expansion, vs non-treated controls): increased FOXP3 induction
- ratio of FOXP3+ cells ([1]; naïve CD4+ T cells, 14 days, vs rapamycin positive control): comparable to that of the rapamycin-treated group
- onset of diabetes [2]: delayed the onset of diabetes
